# Several values for one entry are separate records, joined by “and”; a condition that tells them apart may be missing. Equal values may be shown once. Read-outs that look alike come from different tables or passages of the source.
# Assays:
# [1] = test system: SARS2; format: cell-based, SARS-CoV-2; conditions: for Infection Data, Percentage Infection Relative to Appropriate DMSO Control with Avg Background Subtraction: duplicate wells, listed as SICLS62; for Infection Data, Average, Mean (Percentage Infection Relative to Appropriate DMSO Control): average of Exp 1 and Exp 2, n=4; for Percentage Inhibition Average 1 μM / Screening data (Relative infection to DMSO controls) Average 1 μM: SARS2, 1 μM; for Screening data (Relative infection to DMSO controls) Average 1 μM / Screening data (Relative infection to DMSO controls) Average 5 μM / Screening data (Relative infection to DMSO controls) Average 10 μM / Screening data (Relative infection to DMSO controls) Average 25 μM / Screening data (Relative infection to DMSO controls) Average 50 μM / Average (relative infection to DMSO over the 5 tested concentrations): 100=DMSO control; for Percentage Inhibition Average 5 μM / Screening data (Relative infection to DMSO controls) Average 5 μM: SARS2, 5 μM; for Percentage Inhibition Average 10 μM / Screening data (Relative infection to DMSO controls) Average 10 μM: SARS2, 10 μM; for Percentage Inhibition Average 25 μM / Screening data (Relative infection to DMSO controls) Average 25 μM: SARS2, 25 μM; for Percentage Inhibition Average 50 μM / Screening data (Relative infection to DMSO controls) Average 50 μM: SARS2, 50 μM; for Average (relative infection to DMSO over the 5 tested concentrations): SARS2, average over 1 to 50 uM; for Percentage Infection Relative to Appropriate DMSO Control with Avg Background Subtraction: single well
# [2] = test system: cells (nuclei count); conditions: for Toxicity Data, Average, Mean (percentage relative to appropriate DMSO control): average of Exp 1 and Exp 2, n=4; for Relative cell count to DMSO controls, Average 1 μM / Relative cell count to DMSO controls, Average 5 μM / Relative cell count to DMSO controls, Average 10 μM / Relative cell count to DMSO controls, Average 25 μM / Relative cell count to DMSO controls, Average 50 μM: toxicity data, 100=DMSO control; for Relative cell count to DMSO controls, Average (for correlation analysis): average value over the 5 tested concentrations (1 to 50 uM)
structure (smiles),measurement,setting,value
CC1=C(C(=O)NCC2CCC2)C(c2cccs2)NC(=O)N1 (centres unmarked) [SILCS62],"Infection Data, Percentage Infection Relative to Appropriate DMSO Control with Avg Background Subtraction","[1]; 1 uM, Exp 1 (SMW506)",84.10% and 102.05%
same,"Infection Data, Percentage Infection Relative to Appropriate DMSO Control with Avg Background Subtraction","[1]; 1 uM, Exp 2 (SMW492), SILCS 61-66 and 67-72 plates",50.01% and 36.38%
same,"Infection Data, Average, Mean (Percentage Infection Relative to Appropriate DMSO Control)",[1]; 1 uM,68.14%
same,"Infection Data, Percentage Infection Relative to Appropriate DMSO Control with Avg Background Subtraction","[1]; 5 uM, Exp 1 (SMW506)",45.05% and 53.24%
same,"Infection Data, Percentage Infection Relative to Appropriate DMSO Control with Avg Background Subtraction","[1]; 5 uM, Exp 2 (SMW492), SILCS 61-66 and 67-72 plates",9.05% and 14.15%
same,"Infection Data, Average, Mean (Percentage Infection Relative to Appropriate DMSO Control)",[1]; 5 uM,30.37%
same,"Infection Data, Percentage Infection Relative to Appropriate DMSO Control with Avg Background Subtraction","[1]; 10 uM, Exp 1 (SMW506)",84.98% and 89.35%
same,"Infection Data, Percentage Infection Relative to Appropriate DMSO Control with Avg Background Subtraction","[1]; 10 uM, Exp 2 (SMW492), SILCS 61-66 and 67-72 plates",5.57% and 5.50%
same,"Infection Data, Average, Mean (Percentage Infection Relative to Appropriate DMSO Control)",[1]; 10 uM,46.35%
same,"Infection Data, Percentage Infection Relative to Appropriate DMSO Control with Avg Background Subtraction","[1]; 25 uM, Exp 1 (SMW506)",83.54% and 119.74%
same,"Infection Data, Percentage Infection Relative to Appropriate DMSO Control with Avg Background Subtraction","[1]; 25 uM, Exp 2 (SMW492), SILCS 61-66 and 67-72 plates",1.62% and 0.75%
same,"Infection Data, Average, Mean (Percentage Infection Relative to Appropriate DMSO Control)",[1]; 25 uM,51.41%
same,"Infection Data, Percentage Infection Relative to Appropriate DMSO Control with Avg Background Subtraction","[1]; 50 uM, Exp 2 (SMW492), SILCS 61-66 and 67-72 plates",−0.82% and 2.34%
same,"Infection Data, Average, Mean (Percentage Infection Relative to Appropriate DMSO Control)",[1]; 50 uM,23.88%
same,Percentage Inhibition Average 1 μM,[1],31.86%
same,Screening data (Relative infection to DMSO controls) Average 1 μM,[1],68.14
same,Percentage Inhibition Average 5 μM,[1],69.63%
same,Screening data (Relative infection to DMSO controls) Average 5 μM,[1],30.37
same,Percentage Inhibition Average 10 μM,[1],53.65%
same,Screening data (Relative infection to DMSO controls) Average 10 μM,[1],46.35
same,Percentage Inhibition Average 25 μM,[1],48.59%
same,Screening data (Relative infection to DMSO controls) Average 25 μM,[1],51.41
same,Percentage Inhibition Average 50 μM,[1],76.12%
same,Screening data (Relative infection to DMSO controls) Average 50 μM,[1],23.88
same,Average (relative infection to DMSO over the 5 tested concentrations),[1],44.03
same,"Toxicity Data, Average, Mean (percentage relative to appropriate DMSO control)",[2]; 1 uM,112.47%
same,"Relative cell count to DMSO controls, Average 1 μM",[2],112.47
same,"Toxicity Data, Average, Mean (percentage relative to appropriate DMSO control)",[2]; 5 uM,123.92%
same,"Relative cell count to DMSO controls, Average 5 μM",[2],123.92
same,"Toxicity Data, Average, Mean (percentage relative to appropriate DMSO control)",[2]; 10 uM,116.29%
same,"Relative cell count to DMSO controls, Average 10 μM",[2],116.29
same,"Toxicity Data, Average, Mean (percentage relative to appropriate DMSO control)",[2]; 25 uM,106.51%
same,"Relative cell count to DMSO controls, Average 25 μM",[2],106.51
same,"Toxicity Data, Average, Mean (percentage relative to appropriate DMSO control)",[2]; 50 uM,98.08%
same,"Relative cell count to DMSO controls, Average 50 μM",[2],98.08
same,"Relative cell count to DMSO controls, Average (for correlation analysis)",[2],111.45
Cc1cc(CN(CCN(C)C)Cc2ccsc2)oc1C [SILCS27],"Infection Data, Average, Mean","[1]; Average of Exp 1-3, n 9, 1 uM",101.69%
same,"Infection Data, Average, Mean","[1]; Average of Exp 1-3, n 9, 5 uM",91.50%
same,"Infection Data, Average, Mean","[1]; Average of Exp 1-3, n 9, 10 uM",93.59%
same,"Infection Data, Average, Mean","[1]; Average of Exp 1-3, n 9, 25 uM",67.45%
same,"Infection Data, Average, Mean","[1]; Average of Exp 1-3, n 9, 50 uM",20.11%
same,Percentage Infection Relative to Appropriate DMSO Control with Avg Background Subtraction,"[1]; Exp 1 (SMW475), 1 uM",107.33% and 128.47% and 95.32%
same,Percentage Infection Relative to Appropriate DMSO Control with Avg Background Subtraction,"[1]; Exp 1 (SMW475), 5 uM",113.52% and 118.94% and 106.69%
same,Percentage Infection Relative to Appropriate DMSO Control with Avg Background Subtraction,"[1]; Exp 1 (SMW475), 10 uM",137.00% and 134.73% and 122.43%
same,Percentage Infection Relative to Appropriate DMSO Control with Avg Background Subtraction,"[1]; Exp 1 (SMW475), 25 uM",63.59% and 56.84% and 58.04%
same,Percentage Infection Relative to Appropriate DMSO Control with Avg Background Subtraction,"[1]; Exp 1 (SMW475), 50 uM",15.03% and 16.97% and 13.28%
same,Percentage Infection Relative to Appropriate DMSO Control with Avg Background Subtraction,"[1]; Exp 2 (SMW477), 1 uM",100.41% and 105.41% and 110.54%
same,Percentage Infection Relative to Appropriate DMSO Control with Avg Background Subtraction,"[1]; Exp 2 (SMW477), 5 uM",92.70% and 91.91% and 94.77%
same,Percentage Infection Relative to Appropriate DMSO Control with Avg Background Subtraction,"[1]; Exp 2 (SMW477), 10 uM",76.80% and 77.09% and 89.00%
same,Percentage Infection Relative to Appropriate DMSO Control with Avg Background Subtraction,"[1]; Exp 2 (SMW477), 25 uM",62.89% and 48.77% and 73.05%
same,Percentage Infection Relative to Appropriate DMSO Control with Avg Background Subtraction,"[1]; Exp 2 (SMW477), 50 uM",26.32% and 19.89% and 21.80%
same,Percentage Infection Relative to Appropriate DMSO Control with Avg Background Subtraction,"[1]; Exp 3 (SMW478), 1 uM",87.75% and 89.34% and 90.68%
same,Percentage Infection Relative to Appropriate DMSO Control with Avg Background Subtraction,"[1]; Exp 3 (SMW478), 5 uM",79.11% and 61.06% and 64.83%
same,Percentage Infection Relative to Appropriate DMSO Control with Avg Background Subtraction,"[1]; Exp 3 (SMW478), 10 uM",89.71% and 51.99% and 63.55%
same,Percentage Infection Relative to Appropriate DMSO Control with Avg Background Subtraction,"[1]; Exp 3 (SMW478), 25 uM",80.23% and 76.86% and 86.74%
same,Percentage Infection Relative to Appropriate DMSO Control with Avg Background Subtraction,"[1]; Exp 3 (SMW478), 50 uM",18.61% and 22.87% and 26.23%
same,Percentage Inhibition Average 1 μM,[1],−1.69%
same,Screening data (Relative infection to DMSO controls) Average 1 μM,[1],101.69
same,Percentage Inhibition Average 5 μM,[1],8.50%
same,Screening data (Relative infection to DMSO controls) Average 5 μM,[1],91.50
same,Percentage Inhibition Average 10 μM,[1],6.41%
same,Screening data (Relative infection to DMSO controls) Average 10 μM,[1],93.59
same,Percentage Inhibition Average 25 μM,[1],32.55%
same,Screening data (Relative infection to DMSO controls) Average 25 μM,[1],67.45
same,Percentage Inhibition Average 50 μM,[1],79.89%
same,Screening data (Relative infection to DMSO controls) Average 50 μM,[1],20.11
same,Average (relative infection to DMSO over the 5 tested concentrations),[1],74.87
same,"Relative cell count to DMSO controls, Average 1 μM",[2],109.07
same,"Relative cell count to DMSO controls, Average 5 μM",[2],120.66
same,"Relative cell count to DMSO controls, Average 10 μM",[2],120.18
same,"Relative cell count to DMSO controls, Average 25 μM",[2],103.23
same,"Relative cell count to DMSO controls, Average 50 μM",[2],86.33
same,"Toxicity Data, Average, Mean","[2]; Average of Exp 1-3, n 9, 1 uM",109.07%
same,"Toxicity Data, Average, Mean","[2]; Average of Exp 1-3, n 9, 5 uM",120.66%
same,"Toxicity Data, Average, Mean","[2]; Average of Exp 1-3, n 9, 10 uM",120.18%
same,"Toxicity Data, Average, Mean","[2]; Average of Exp 1-3, n 9, 25 uM",103.23%
same,"Toxicity Data, Average, Mean","[2]; Average of Exp 1-3, n 9, 50 uM",86.33%
same,"Relative cell count to DMSO controls, Average (for correlation analysis)",[2],107.89
CC1=C(C(=O)NCc2ccccc2)C(c2scc3c2OCCO3)NC(=O)N1 (centres unmarked) [SILCS66],Percentage Inhibition Average 1 μM,[1],−3.65%
same,Screening data (Relative infection to DMSO controls) Average 1 μM,[1],103.65
same,Percentage Inhibition Average 5 μM,[1],38.92%
same,Screening data (Relative infection to DMSO controls) Average 5 μM,[1],61.08
same,Percentage Inhibition Average 10 μM,[1],−7.16%
same,Screening data (Relative infection to DMSO controls) Average 10 μM,[1],107.16
same,Percentage Inhibition Average 25 μM,[1],−12.41%
same,Screening data (Relative infection to DMSO controls) Average 25 μM,[1],112.41
same,Percentage Inhibition Average 50 μM,[1],−28.18%
same,Screening data (Relative infection to DMSO controls) Average 50 μM,[1],128.18
same,Average (relative infection to DMSO over the 5 tested concentrations),[1],102.50
same,"Relative cell count to DMSO controls, Average 1 μM",[2],98.81
same,"Relative cell count to DMSO controls, Average 5 μM",[2],109.01
same,"Relative cell count to DMSO controls, Average 10 μM",[2],93.98
same,"Relative cell count to DMSO controls, Average 25 μM",[2],90.79
same,"Relative cell count to DMSO controls, Average 50 μM",[2],84.65
same,"Relative cell count to DMSO controls, Average (for correlation analysis)",[2],95.45
